This is an account of results in patent CN113214121A, “一种格列本脲-精氨酸共无定型” (Jiangsu Hengrui Medicine Co Ltd, priority 2020, dated 2021).

Converted amounts (≈) assume the structure as drawn. Where two headings read alike, the source gives them in different places.

The nature of data set [1]: Content of glyburide and arginine dissolved in the filtered supernatant, Example 2. It counts as physicochemical. Conditions: 8mg glyburide + 8mg arginine in 10mL water, supersaturated solution at 60℃, 0.45um filter.
For data set [2] the following is noted: 100mg glyburide (form A) + 36mg arginine in 10mL water, room temperature, stirred overnight, 0.45um filter.
The conditions of data set [3]: 25℃; cited from earlier work.

As for `N=C(N)NCCCC(N)C(=O)O` (stereo not shown) [精氨酸], the “arginine content in supernatant” value was 0.8 mg/mL in data set [1] and 3.50 mg/mL in data set [2].

In the case of `COc1ccc(Cl)cc1C(=O)NCCc1ccc(S(=O)(=O)NC(=O)NC2CCCCC2)cc1` [格列本脲, N-[2-[4-[[[(环己氨基)羰基]氨基]磺酰基]苯基]乙基]-2-甲氧基-5-氯苯甲酰胺], the solubility – broadly, the concentration that dissolves in the medium under given conditions – in data set [1] worked out at 800 µg/mL. Besides, the solubility in water in data set [3] is 100 µg/mL (≈ 202 µM).
